US6825230B2, “Spiro and dispiro 1,2,4-trixolane antimalarials” (Medicines for Malaria Venture MMV, priority 2002, dated 2004)

Tests used:
[1] = Differential scanning calorimetry (DSC) thermal stability; format: physicochemical; details: thermal decomposition
P. berghei ANKA strain [2] = test: Onset of action and recrudescence experiment, single 100 mg/kg po; format: in vivo, Plasmodium berghei; details: single 100 mg/kg po (SSV) on day +3 post-infection; recrudescence = >5% parasitemia; followed up to 60 days; groups of five
[3] = system: Schistosoma mansoni adult worms (49-day-old); test: Effect on adult schistosomes (49-day-old) in infected mice; format: in vivo; details: for % reduction of adult worms growth at day 49 after per os application of 400 mg/kg, TWR (%) / Adult worms day 49, per os 400 mg/kg, DEAD WORM (%): single 400 mg/kg per os
Experimental: Mice were infected with 100 Schistosoma mansoni cercariae on day 49 post-treatment. Each group was treated per os with OZ compounds at single doses of 200, 400, and 600 mg/kg. Untreated mice served as the control. All groups were killed 4 weeks after treatment and the liver and intestine were removed and separated. The liver and intestine were compressed and alive male and female worms could be seen and counted.

[4] = system: ANKA strain of P. berghei; test: Single dose STI in vivo screen in infected mice; set-up: species or system Plasmodium berghei; details: for Survival (days) 10 mg/kg SSV po: single 10 mg/kg po in SSV; for Activity (%) 10 mg/kg SSV po: single 10 mg/kg po in standard suspending vehicle (SSV) on day 1 post-infection
[5] = system: chloroquine-sensitive NF54 strain of P. falciparum; test: In vitro antimalarial semiautomated microdilution assay ([3H]-hypoxanthine incorporation), NF54 strain; format: cell-based, Plasmodium falciparum; details: Plasmodium falciparum, NF54, 72 h, read-out: IC50 (ng/ml) NF54, chloroquine-sensitive NF54 strain, 72 h incubation
Outline: (§1)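 Logit regression analysis yields the fifty percent inhibitory concentration. Compounds are tested by semiautomated microdilution on intraerythrocytic parasites drawn from asynchronous stock cultures, measuring [3H]-hypoxanthine incorporation.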

Schistosoma japonicum = test: Effect in mice infected with Schistosoma japonicum; format: in vivo; details: for MFWB (mean female worm burden) x ± SD: control 11.6 ± 2.4; for MTWB (mean total worm burden) x ± SD: control 26.6 ± 4.2
[6] = system: Schistosoma mansoni 21-day-old schistosomules; test: Effect on 21-day-old schistosomules in infected mice; format: in vivo; details: single 200 mg/kg per os, 21-day-old schistosomules
Experimental: Mice were infected with 100 Schistosoma mansoni cercariae on day 21 post-treatment. Each group was treated per os with trioxolanes at a single dose of 200 mg/kg. […] All groups were killed 4 weeks after treatment and the liver and intestine were removed and separated. The liver and intestine were compressed and alive male and female worms could be seen and counted. The effect of the compounds was evaluated by mean total and female worm burden.

S. haematobium = test: In vivo activity against S. haematobium; set-up: species or system Schistosoma haematobium; details: 1 x 200 mg/kg p.o.
[7] = system: ANKA strain of Plasmodium berghei; test: Single dose ED50/ED90/ED99 determination in infected mice; format: in vivo; details: single dose po in SSV on day 1 post-infection, parasitemia day 3, nonlinear fitting; for ED50: Plasmodium berghei, po
Outline: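 Moro SPF or NMRI mice (three per group) infected with P. berghei ANKA were dosed once on day 1 post-infection in SSV (0.5% CMC, 0.5% benzyl alcohol, 0.4% Tween 80, 0.9% NaCl). Parasitemia reduction was scored on day 3; ED values (mg/kg) came from nonlinear fitting.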

[8] = system: chloroquine-resistant K1 strain of P. falciparum; test: In vitro antimalarial semiautomated microdilution assay ([3H]-hypoxanthine incorporation), K1 strain; format: cell-based, Plasmodium falciparum; details: Plasmodium falciparum, K1, 72 h, read-out: IC50 (ng/ml) K1, chloroquine-resistant K1 strain, 72 h incubation
Outline: as §1

[9] = Pharmacokinetics in dogs (IV and oral dosing); details: in vivo, dog; for bioavailability: some values marked (V), not defined
Text: (§2) Artesunate is listed as a reference compound.

[10] = Pharmacokinetics in rats (IV and oral dosing); details: in vivo, rat
Text: as §2

P. berghei ANKA strain [11] = test: Prophylactic activity, single 100 mg/kg po at various times before infection; format: in vivo, Plasmodium berghei; details: parasitemia reduction on day 3 post-infection
P. berghei ANKA strain [12] = test: Divided 3x3 mg/kg and 3x1 mg/kg po doses in infected mice; format: in vivo, Plasmodium berghei; details: for Activity (%): percent reduction of parasitemia vs control on day 4
Outline: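 Male NMRI mice were infected i.v. with 2×10^7 P. berghei-parasitized erythrocytes on day 0, then dosed orally in SSV vehicle on days 1, 2 and 3 post-infection.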

P. berghei ANKA strain [13] = test: Divided 3x10 mg/kg vs single 1x30 mg/kg po dose in infected mice; format: in vivo, Plasmodium berghei
[14] = 49-day-old adults, total worm reduction rate
[15] = percentage of dead worm in the liver
[16] = percent reduction in parasitemia on day 3
[17] = 1 x 200 mg/kg p.o. (table footnote)
[18] = 1 x 400 mg/kg p.o. (table footnote)
[19] = age of worm 7 days, 200 mg/kg x 1
[20] = age of worm 35 days, 200 mg/kg x 1
[21] = age of worm 35 days, 400 mg/kg x 1
[22] = 3 × 1 mg/kg p.o. SSV on days 1, 2, 3 post-infection
[23] = 3 × 3 mg/kg p.o. SSV on days 1, 2, 3 post-infection

## C[C@@H]1CC[C@H]2[C@@H](C)C(=O)O[C@@H]3O[C@@]4(C)CC[C@@H]1[C@]32OO4 [Artemisinin, artemisinin, reference compound]
[1]
  Tm, dec (DSC): 181 °C
P. berghei ANKA strain [2]
  Time of Recrudescence: 8.4 days

## Cc1ccc(S(=O)(=O)O)cc1.NC[C@H]1CC[C@]2(CC1)OOC1(O2)C2CC3CC(C2)CC1C3 (stereo partly drawn) [OZ207]
[3]; single 200 mg/kg per os, 49-day-old adults, total worm reduction rate
  % reduction of adult worms growth at day 49 after per os application of 200 mg/kg, TWR (%): 32%
[3]; single 200 mg/kg per os, percentage of dead worm in the liver
  Adult worms day 49, per os 200 mg/kg, DEAD WORM (%): 17%
[3]; [14]
  % reduction of adult worms growth at day 49 after per os application of 400 mg/kg, TWR (%): 35%
[3]; [15]
  Adult worms day 49, per os 400 mg/kg, DEAD WORM (%): 21%
[3]; single 600 mg/kg per os, 49-day-old adults, total worm reduction rate
  % reduction of adult worms growth at day 49 after per os application of 600 mg/kg, TWR (%): 11/ %
[3]; single 600 mg/kg per os, percentage of dead worm in the liver
  Adult worms day 49, per os 600 mg/kg, DEAD WORM (%): 24++ %
[4]; single 10 mg/kg po in 3% ethanol and 7% Tween 80, untreated 6-7 days
  Survival (days) 10 mg/kg po: 9.3 days
[4]; single 10 mg/kg po in 3% ethanol and 7% Tween 80 on day 1 post-infection, percent reduction in parasitemia on day 3
  Activity (%) 10 mg/kg po: 99.96%
[4]; untreated 6-7 days
  Survival (days) 10 mg/kg SSV po: 12.0 days
[4]; [16]
  Activity (%) 10 mg/kg SSV po: 99.98%
[4]; single 10 mg/kg sc in 3% ethanol and 7% Tween 80, untreated 6-7 days
  Survival (days) 10 mg/kg sc: 11.3 days
[4]; single 10 mg/kg sc in 3% ethanol and 7% Tween 80 on day 1 post-infection, percent reduction in parasitemia on day 3
  Activity (%) 10 mg/kg sc: 99.98%
[5]
  IC50: 0.57 ng/mL
Schistosoma japonicum; [17]
  S. Japonicum FWR: 95%
  S. Japonicum TWR: 66%
Schistosoma japonicum; [18]
  S. Japonicum FWR: 94%
  S. Japonicum TWR: 84%
Schistosoma japonicum; [19]
  Mice without female worm: 0/8
  MFWB (mean female worm burden) x ± SD: 2.1 ± 1.0
  MTWB (mean total worm burden) x ± SD: 5.4 ± 2.4
Schistosoma japonicum; [20]
  Mice without female worm: 4/7
  MFWB (mean female worm burden) x ± SD: 0.6 ± 0.7
  MTWB (mean total worm burden) x ± SD: 9.1 ± 3.9
Schistosoma japonicum; [21]
  Mice without female worm: 4/6
  MFWB (mean female worm burden) x ± SD: 0.7 ± 1.2
  MTWB (mean total worm burden) x ± SD: 4.3 ± 1.2
[6]; female worm reduction rate
  % reduction of schistosomule growth at day 21 after per os application of 200 mg/kg, FWR (%): 100%
[6]; total worm reduction rate
  % reduction of schistosomule growth at day 21 after per os application of 200 mg/kg, TWR (%): 93%
S. haematobium
  S. haematobium DEAD WORM: 68%
  S. haematobium TWR: 73%
P. berghei ANKA strain [2]
  Time of Recrudescence (days): no recrudescence observed
[7]
  ED50: 0.37 mg/kg
  ED90: 1.2 mg/kg
  ED99: 3.0 mg/kg
[8]
  IC50: 0.33 ng/mL

## Cc1ccc(S(=O)(=O)O)cc1.O=C(C[C@H]1CC[C@]2(CC1)OO[C@]1(O2)C2CC3CC(C2)CC1C3)N1CCNCC1 [OZ279]
[3]; [14]
  % reduction of adult worms growth at day 49 after per os application of 400 mg/kg, TWR (%): 0%
[3]; [15]
  Adult worms day 49, per os 400 mg/kg, DEAD WORM (%): 12%
[9]; IV 10 mg/kg
  half-life: 2.96 h
[9]; oral 10 mg/kg
  half-life: 3.26 h
[9]; oral 10 mg/kg, read-out: Dog Oral Bioavailability 10 mg/kg
  bioavailability: 32.8%
[9]; oral 25 mg/kg, read-out: Dog Oral Bioavailability 25 mg/kg
  bioavailability: 55.7%
[4]; single 3 mg/kg po in SSV, percent reduction in parasitemia on day 3
  Activity (%) 3 mg/kg SSV po: 99.42%
[4]; untreated 6-7 days
  Survival (days) 10 mg/kg SSV po: 9.3 days
[4]; [16]
  Activity (%) 10 mg/kg SSV po: 99.98%
[5]
  IC50: 0.24 ng/mL
[10]; IV 10 mg/kg
  half-life: 1.68 h
[10]; oral 10 mg/kg, read-out: Rat Oral Bioavailability 10 mg/kg
  bioavailability: 37.2%
[10]; oral 25 mg/kg
  half-life: 2.78 h
[10]; oral 25 mg/kg, read-out: Rat Oral Bioavailability 25 mg/kg
  bioavailability: 71.1%
P. berghei ANKA strain [11]; single 100 mg/kg po 24 h before infection
  Prophylactic Activity (%) 24 h: 97%
P. berghei ANKA strain [11]; single 100 mg/kg po 48 h before infection
  Prophylactic Activity (%) 48 h: 27%
P. berghei ANKA strain [11]; single 100 mg/kg po 72 h before infection
  Prophylactic Activity (%) 72 h: 14%
P. berghei ANKA strain [11]; single 100 mg/kg po at 0 h
  Prophylactic Activity (%) 0 h: 100%
P. berghei ANKA strain [12]; [22]
  Survival: 8.8 days
  Activity (%): 83%
P. berghei ANKA strain [12]; [23]
  Survival: 14.8 days
  Activity (%): 100%
P. berghei ANKA strain [13]; 10 mg/kg po on days 1, 2, 3 post-infection
  Survival (days) 3 × 10 mg/kg p.o. SSV: 25.4 days
P. berghei ANKA strain [13]; 10 mg/kg po on days 1, 2, 3 post-infection, parasitemia reduction on day 4
  Activity (%) 3 × 10 mg/kg p.o. SSV: 100%
P. berghei ANKA strain [13]; single 30 mg/kg po on day 1 post-infection
  Survival (days) 1 × 30 mg/kg p.o. SSV: 14.8 days
P. berghei ANKA strain [13]; single 30 mg/kg po on day 1 post-infection, parasitemia reduction on day 4
  Activity (%) 1 × 30 mg/kg p.o. SSV: 99.95%
P. berghei ANKA strain [13]; single 30 mg/kg po, cure = survival to day 30 post-infection
  Cures 1 × 30 mg/kg p.o. SSV: 0/5
P. berghei ANKA strain [2]
  Time of Recrudescence: 15.0 days
[7]
  ED50: 0.63 mg/kg
  ED90: 1.8 mg/kg
  ED99: 3.9 mg/kg
[8]
  IC50: 0.21 ng/mL
